This is an account of results in article PMC9732823, “Discovery of Dual Aβ/Tau Inhibitors and Evaluation of Their Therapeutic Effect on a Drosophila Model of Alzheimer’s Disease” (ACS Chemical Neuroscience, 2022).

Data set [1] can be described thus: PAMPA-BBB assay. As to conditions: PAMPA-BBB penetration estimation. An excerpt: Thus, to reduce attrition in the development process, the evaluation of BBB penetration at a very early drug discovery stage is of crucial importance. In light of this, the ability of the previously selected compounds to cross the BBB was predicted by a parallel artificial membrane permeability assay (PAMPA)-BBB,[41] a high-throughput technique widely used as an indicator of a molecule’s passive diffusion through the BBB. Six commercially available drugs were used to validate the assay.
PAMPA (the parallel artificial membrane permeability assay) is a high-throughput screening tool applicable for the prediction of the passive transport of potential drugs across the BBB.[41] In this study, it has been used as a non-cell-based in vitro assay carried out in a coated 96-well membrane filter. The filter membrane of the donor plate was coated with PBL (Polar Brain Lipid, Avanti) in dodecane (4 μL of 20 mg/mL PBL in dodecane) and the acceptor well was filled with 300 μL of phosphate buffer saline, (PBS pH 7.4; VA). The tested compounds were dissolved first in DMSO and then diluted with PBS pH 7.4 to reach the final concentrations of 50–500 μM in the donor well. […] Then, 300 μL of the donor solution (VD) was added to the donor wells and the donor filter plate was carefully put on the acceptor plate so that the coated membrane was “in touch” with both donor solution and acceptor buffer. In principle, the test compound diffuses from the donor well through the polar brain lipid membrane (area = 0.28 cm^2) to the acceptor well. The concentrations of the tested compound in both donor and the acceptor wells were assessed after 3, 4, 5, and 6 h of incubation in quadruplicate using a UV plate reader, Synergy HT (Biotek) at the maximum absorption wavelength of each compound (n=3). In addition to that, solution of the theoretical compound concentration, simulating the equilibrium state established if the membrane were ideally permeable, was prepared and assessed as well. The concentrations of the compounds in the donor and acceptor wells and the equilibrium concentration were calculated from the standard curve and expressed as the permeability (Pe) according to the equation[41] [drawing 1] where [drawing 2]

The target in data set [2] is T1, Aβ42 (Homo sapiens, UniProt P05067).
T1 construct: expressed in transfected cells; host or cells: Escherichia coli BL21 (DE3), pET28a
T1 sequence (P05067 672-713 limits assumed): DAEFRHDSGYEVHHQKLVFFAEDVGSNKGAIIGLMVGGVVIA
As to the kind of experiment: Inhibition of Aβ42 aggregation in intact E. coli cells overexpressing Aβ42 (ThS fluorescence). As to conditions: read-out: % inhibition Aβ42 aggregation @ 10 μM, intact E. coli cells, compound 10 μM, mean ± SEM of four independent experiments. In kind it is cell-based, Escherichia coli. The source says: (§1) As it would have been labor-intensive and expensive to screen such a number of compounds in two separate antiaggregating studies using recombinant Aβ and Tau, we turned our attention to a simple model of protein aggregation, namely, the intact Escherichia coli (E. coli) cells overexpressing Aβ42 and Tau proteins.[28],[29] Building on the fact that inclusion bodies produced by overexpression of these proteins in E. coli mainly consist of fibrillar aggregates, this simple screening method uses bacteria as an in vivo reservoir for tracking the inhibition of amyloid-type protein aggregation in real time, using the amyloid dye thioflavin S (ThS). Of note, this screening has already been used for the evaluation of libraries of antiaggregating compounds.[28]−[38]
Escherichia coli competent cells BL21 (DE3) were transformed with the pET28a vector (Novagen, Inc., Madison, WI) carrying the DNA sequence of Aβ42. Because of the addition of the initiation codon ATG in front of both genes, the overexpressed peptide contains an additional methionine residue at its N terminus. For overnight culture preparation, an amount of 10 mL of M9 minimal medium containing 50 μg·mL^–1 kanamycin was inoculated with a colony of BL21 (DE3) bearing the plasmid to be expressed at 37 °C. For expression of the Aβ42 peptide, the required volume of overnight culture to obtain 1:500 dilution was added into fresh M9 minimal medium containing 50 μg·mL^–1 kanamycin and 250 μM ThS. The bacterial culture was grown at 37 °C and 250 rpm. When the cell density reached ABS600 nm = 0.6, an amount of 980 μL of culture was transferred into Eppendorf tubes of 1.5 mL with 10 μL of each compound to be tested in DMSO and 10 μL of isopropyl 1-thio-β-D-galactopyranoside (IPTG) at 100 mM. The final concentration of the drug was fixed at 10 μM. The samples were grown overnight at 37 °C and 1400 rpm using a thermomixer (Eppendorf, Hamburg, Germany). As the control of the amyloid presence (maximal amyloid presence), the same amount of DMSO without the drug was added to the sample. In parallel, noninduced samples (in the absence of IPTG) were also prepared and used as controls of the non-amyloid presence. In addition, the absorbance at 600 nm of the samples was checked to assess the potential intrinsic toxicity of the compounds and to confirm the correct bacterial growth.
(§2) ThS (T1892) and other chemical reagents were purchased from Sigma (St. Louis, MO). ThS stock solution (25 mM) was prepared in double-distilled water purified through a Milli-Q system (Millipore). For the fluorescence assay, the ThS spectra were measured on an AMINCO-Bowman series 2 luminescence spectrophotometer (Aminco-Bowman AB2, SLM Aminco, Rochester, NY) from 460 to 600 nm at 25 °C using an excitation wavelength of 440 nm and slit widths of 4 nm. The emission at 485 nm (fluorescence peak of ThS in the presence of amyloids) was recorded. To normalize the ThS fluorescence as a function of the bacterial concentration, ABS600nm was obtained using a Shimadzu UV-2401 PC UV–Vis spectrophotometer (Shimadzu, Japan). Note that the fluorescence normalization was carried out considering as 100% the ThS fluorescence of the bacterial cells expressing the peptide or protein in the absence of the drug and 0% the ThS fluorescence of the bacterial cells nonexpressing the peptide or protein.

The test system of data set [3] is cerebellar granule neurons (CGNs). As to the kind of experiment: Neurotoxicity on primary cultures of cerebellar granule neurons (nuclei counting after Hoechst staining). To be noted: differentiated CGNs, 24 h, percentage of healthy nuclei on total nuclei, mean ± SEM of three experiments.
Data set [4] has as its target T2, Tau protein (Homo sapiens, UniProt P10636).
T2 construct: expressed in transfected cells; host or cells: Escherichia coli BL21 (DE3) with pTARA and pRKT42
Kind of data set: Inhibition of Tau aggregation in intact E. coli cells overexpressing Tau (ThS fluorescence). In kind it is cell-based, Escherichia coli. To be noted: for inhibition at 10 µM: read-out: % inhibition Tau aggregation @ 10 μM, intact E. coli cells, compound 10 μM, mean ± SEM of four independent experiments.
Excerpt: as §1
E. coli BL21 (DE3) competent cells were transformed with pTARA containing the RNA-polymerase gen of the T7 phage (T7RP) under the control of the promoter PBAD. E. coli BL21 (DE3) with pTARA competent cells were transformed with the pRKT42 vector encoding four repeats of Tau protein in two inserts. For overnight culture preparation, 10 mL of M9 medium containing 0.5% of glucose, 100 μg·mL^–1 ampicillin, and 12.5 μg·mL^–1 chloramphenicol were inoculated with a colony of BL21 (DE3) bearing the plasmids to be expressed at 37 °C. For expression of Tau protein, the required volume of overnight culture to obtain 1:500 dilution was added to fresh M9 minimal medium containing 0.5% of glucose, 50 μg·mL^–1 ampicillin, 12.5 μg·mL^–1 chloramphenicol, and 25 μM ThS. The bacterial culture was grown at 37 °C and 250 rpm. When the cell density reached ABS600 nm= 0.6, an amount of 980 μL of culture was transferred into Eppendorf tubes of 1.5 mL with 10 μL of each compound to be tested in DMSO and 10 μL of arabinose at 25%. The final concentration of the drug was fixed at 10 μM. The samples were grown overnight at 37 °C and 1400 rpm using a thermomixer (Eppendorf, Hamburg, Germany). As the control of maximal amyloid presence, the same amount of DMSO without the drug was added to the sample. In parallel, noninduced samples (in the absence of arabinose) were also prepared and used as controls for the amyloid absence. In addition, the absorbance at 600 nm of the samples was checked to assess the potential intrinsic toxicity of the compounds and to confirm the correct bacterial growth.
as §2

Structures are written as SMILES.

T2 sequence (P10636 1-441 isoform P10636-8): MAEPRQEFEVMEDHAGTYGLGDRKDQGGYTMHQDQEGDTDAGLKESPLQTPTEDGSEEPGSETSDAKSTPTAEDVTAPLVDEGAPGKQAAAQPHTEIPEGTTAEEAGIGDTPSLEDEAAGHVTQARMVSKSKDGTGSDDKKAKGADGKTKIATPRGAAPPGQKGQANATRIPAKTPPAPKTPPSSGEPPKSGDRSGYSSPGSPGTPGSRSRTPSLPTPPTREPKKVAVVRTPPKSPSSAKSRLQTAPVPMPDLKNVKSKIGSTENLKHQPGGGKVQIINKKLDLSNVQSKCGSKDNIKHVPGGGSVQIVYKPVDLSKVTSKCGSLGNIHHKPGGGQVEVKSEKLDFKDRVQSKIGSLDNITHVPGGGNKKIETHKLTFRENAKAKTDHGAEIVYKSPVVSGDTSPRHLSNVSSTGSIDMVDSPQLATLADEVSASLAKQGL

For `CO/N=C(\C(=O)N[C@@H]1C(=O)N2C(C(=O)O)=C(COC(N)=O)CS[C@H]12)c1ccco1` [Cefuroxime, reference compound], the “CNS (+/-)” value in data set [1] is on record as “CNS - (CNS - (low BBB permeation predicted): Pe (×10-6 cm s-1) < 2.0)”.
With `CCOC(=O)CN1C(=O)S/C(=C\c2ccc3c(c2)C(C)(C)c2cc(/C=C4\SC(=O)N(CC(=O)OCC)C4=O)ccc2-3)C1=O` [Compound 11, Diethyl 2,2′-((5Z,5′Z)-((9,9-dimethyl-9H-fluorene-2,7-diyl)bis(methanylylidene))bis(2,4-dioxothiazolidin-3-yl-5-ylidene))diacetate], the inhibition at 10 µM in data set [2] was found to be 17.5 ± 4.5%; in data set [4], 33.1 ± 4.5%. Moreover, the “% survival neurotoxicity @ 10 μM” value in data set [3] was found to be 85.8 ± 6.9%.
In the case of `CCOC(=O)CN1C(=O)S/C(=C\c2ccc(-c3ccc(/C=C4\SC(=O)N(CC(=O)OCC)C4=O)s3)s2)C1=O` [Compound 12, Diethyl 2,2′-((5Z,5′Z)-([2,2′-bithiophene]-5,5′-diylbis(methanylylidene))bis(2,4-dioxothiazolidin-3-yl-5-ylidene))diacetate], the values for the inhibition at 10 µM in data set [2] and in data set [4] were 7 ± 3.7% and 9.2 ± 5%, respectively. Also, the “% survival neurotoxicity @ 10 μM” value in data set [3] turned out to be 90.2 ± 2.1%.
For `O=C(O)CN1C(=O)S/C(=C\c2ccc(/C=C3\SC(=O)N(CC(=O)O)C3=O)cc2)C1=O` [Compound 13, 2,2′-((5Z,5′Z)-(1,4-Phenylenebis(methanylylidene))bis(2,4-dioxothiazolidin-3-yl-5-ylidene))diacetic acid], in that order: 16.1 ± 3.9%, 25.3 ± 4.2% and 82.3 ± 2.9%.
As for `O=C(O)CN1C(=O)S/C(=C\c2ccc(-c3ccc(/C=C4\SC(=O)N(CC(=O)O)C4=O)cc3)cc2)C1=O` [Compound 14, 2,2′-((5Z,5′Z)-([1,1′-Biphenyl]-4,4′-diylbis(methanylylidene))bis(2,4-dioxothiazolidin-3-yl-5-ylidene))diacetic acid], the inhibition at 10 µM in data set [2] was found to be 35.1 ± 1.9%; in data set [4], 27.1 ± 2.5%. Moreover, the “% survival neurotoxicity @ 10 μM” value in data set [3] was found to be 89.0 ± 2.2%.
For `O=C(O)CN1C(=O)S/C(=C\c2ccc(Cc3ccc(/C=C4\SC(=O)N(CC(=O)O)C4=O)cc3)cc2)C1=O` [Compound 15, 2,2′-((5Z,5′Z)-((Methylenebis(4,1-phenylene))bis(methanylylidene))bis(2,4-dioxothiazolidin-3-yl-5-ylidene))diacetic acid], in that order: 26.2 ± 1.9%, 3.8 ± 5.2% and 90.9 ± 1.5%.
As to `O=C(O)CN1C(=O)S/C(=C\c2ccc(-c3ccc(/C=C4\SC(=O)N(CC(=O)O)C4=O)s3)s2)C1=O` [Compound 18, 2,2′-((5Z,5′Z)-([2,2′-Bithiophene]-5,5′-diylbis(methanylylidene))bis(2,4-dioxothiazolidin-3-yl-5-ylidene))diacetic acid], the figures for the inhibition at 10 µM in data set [2] and in data set [4] were 65.6 ± 3.3% and less than 20%, respectively. Moreover, in data set [3], the “% survival neurotoxicity @ 10 μM” value is on record as 90.9 ± 3.1%. Besides, the “% inhibition Tau aggregation @ 10 μM” value in data set [4] (intact E. coli cells, compound 10 μM, mean ± SEM of four independent experiments, 10 µM) was determined as 15.8 ± 4.7%.
As to `CN(C)CCN1C(=O)S/C(=C\c2ccc(/C=C3\SC(=O)N(CCN(C)C)C3=O)cc2)C1=O` [Compound 19, (5Z,5′Z)-5,5′-(1,4-Phenylenebis(methanylylidene))bis(3-(2-(dimethylamino)ethyl)thiazolidine-2,4-dione)], the figures for the inhibition at 10 µM in data set [2] and in data set [4] were 8.1 ± 4.4% and 19.4 ± 3.6%, respectively. In addition, the “% survival neurotoxicity @ 10 μM” value in data set [3] is 89.4 ± 2.0%.
As for `CN(C)CCN1C(=O)S/C(=C\c2ccc(-c3ccc(/C=C4\SC(=O)N(CCN(C)C)C4=O)cc3)cc2)C1=O` [Compound 20, (5Z,5′Z)-5,5′-([1,1′-Biphenyl]-4,4′-diylbis(methanylylidene))bis(3-(2-(dimethylamino)ethyl)thiazolidine-2,4-dione)], the inhibition at 10 µM in data set [2] was found to be 26.4 ± 4.2%; in data set [4] it was 34.9 ± 1.9%. The “% survival neurotoxicity @ 10 μM” value in data set [3] is 91.1 ± 0.9%.
Taken in the same sequence, the figures for `CN(C)CCN1C(=O)S/C(=C\c2ccc(Cc3ccc(/C=C4\SC(=O)N(CCN(C)C)C4=O)cc3)cc2)C1=O` [Compound 21, (5Z,5′Z)-5,5′-((Methylenebis(4,1-phenylene))bis(methanylylidene))bis(3-(2-(dimethylamino)ethyl)thiazolidine-2,4-dione)] were 16.1 ± 3.8%, 38.7 ± 3.3% and 91.1 ± 1.5%.
Regarding `CN(C)CCN1C(=O)S/C(=C\c2ccc(-c3ccc(/C=C4\SC(=O)N(CCN(C)C)C4=O)s3)s2)C1=O` [Compound 24, (5Z,5′Z)-5,5′-([2,2′-Bithiophene]-5,5′-diylbis(methanylylidene))bis(3-(2-(dimethylamino)ethyl)thiazolidine-2,4-dione)], the inhibition at 10 µM was found to be 20.3 ± 4.8% in data set [2] and 17.3 ± 4.5% in data set [4]. The “% survival neurotoxicity @ 10 μM” value in data set [3] turned out to be 88.8 ± 2.3%.

Broadly, the inhibition is the relative decrease from the control value, in per cent.
